Key:
[1] = Scratched human teeth, SEM comparison of theobromine and NaF; settings: 90 minutes incubation; NaF 0.25%, theobromine 200 mg/L
Method: (§1) Isolated human teeth were scratched with a diamond scribe on the enamel surface. Each tooth was then etched for 15 seconds in 0.1 M HCl, rinsed with distilled water, then exposed for 15 seconds to a 0.1 M oxalic acid solution, and then rinsed once more with distilled water. […] The pH was adjusted to 7.4-7.6, after which a 0.2 M CaCl2 solution was added with stirring (the solution turns immediately turbid from Ca-phosphate precipitation). The pH was checked and adjusted immediately to between 7.4 and 7.6, as required. […] A volume ratio of about 3:5 Na2HPO4 solution-to-CaCl2 solution was used to avoid any excess of either Ca or P. The teeth were so incubated at room temperature for about 90 minutes, after which they were removed from solution, carefully rinsed several times with distilled water, and then dried in a desiccator for 24 hours. After drying, the teeth were carbon-coated for viewing via scanning electron microscopy (SEM).

[2] = deposition in drilled holes; NaF 0.25%, theobromine 200 mg/L
Method: as §1
Using a dental drill, holes were drilled into the enamel surfaces of isolated human teeth, with each tooth receiving three holes in three separate locations. […] The teeth were visualized via SEM, as in EXAMPLE 4, and the amount of calcium phosphate deposition measured for each experimental condition.

[F-].[Na+] [NaF, sodium fluoride]
appearance of diamond-scribe scratch in SEM [1]: partly-filled | Calcium Phosphate (μm) ± S.D. [2]: 70 ± 8.8 μm
